In brackets after ≈: the same amount, converted by molar mass.
Tests used:
[1] = in vivo; settings: rat
Protocol: The acute toxicity of the prodrug compounds and parent compounds are measured by LD50 of rat.

[2] = system: human skin tissue; settings: human, 20 %, pH 7.4
[3] = Plasma levels after transdermal administration to hairless mice; assay type: in vivo; settings: for t, time to peak plasma level after parent compound: parent compound administered (time when taken orally); for Peak plasma concentration after parent compound: parent compound administered, hairless mice
Protocol: Tested compounds (20% solution or suspension in 1 mL isopropanol) are administered transdermally to the skin of intact hairless mice. The plasma levels of the parent compounds are determined by HPLC.

[4] = Solubility in water / aqueous solubility of HPPs and parent drugs; settings: water
[5] = system: rats; experiment: Antipyretic activity, E. coli suspension as pyrogen; assay type: in vivo; settings: in °C (unit assumed)
Protocol: Rats are administered with sterilized E. coli suspension as a pyrogen. Each group of rats are administered with a prodrug compounds or parent compounds at a dosage specified below. The prodrug compounds are administered either orally or transdermally. The parent compounds are administered orally.

[6] = system: mice; experiment: Analgesic activity, acetic acid writhing; assay type: in vivo; settings: 30 min before acetic acid
Protocol: The prodrug compounds are administered either transdermally or orally. The parent compounds are administered orally. The number of writhing that occurred when mice are administered the acetic acid solution are counted, and the rate of inhibition based on the control group which was not pretreated with any test compounds is calculated. […] The A group is the control group.

[7] = system: rats (SLAC/GK, type 2 diabetes); experiment: Blood lipid in type 2 diabetes rats, transdermal; assay type: in vivo, rat; settings: for Cholesterol (HDL), Baseline / Cholesterol (total), Baseline / Triglycerides, Baseline: equal to 20 mg/kg of NSAIAs; for Cholesterol (HDL), Average / Cholesterol (total), Average / Triglycerides, Average: end of the fifth week, equal to 20 mg/kg of NSAIAs once per day
Description: (§1) HPPs lower blood glucose level in rat models (SLAC/GK, type 2 diabetes, n=7). 50% acetone solution of diethylaminoethyl acetylsalicylate.acetylsalicylic acid salt (P-1, in acetone); 4-acetamidophenyl salicylyldimethylaminobutyrate.HCl (P-6), diethylaminoethyl 5-(2,4-difluorophenyl) acetylsalicylate.5-(2,4-difluorophenyl).acetylsalicylic acid salt (P-8), diethylaminoethyl salicylsalicylate.AcOH (P-9), diethylaminoethyl salicylate.AcOH (P-10), diethylaminoethyl 5-acetamido-acetylsalicylate (P-58), diethylaminoethyl acetylsalicylsalicylate.acetylsalicylsalicylic acid salt (P-59), diethylaminoethyl acetylsalicylsalicylate.acetylsalicylsalicylsalicylic acid salt (P-60) (equal to of 20 mg/kg of NSAIAs) are administered transdermally to the backs (about 1.5 cm^2) of rats (fur was shaved) once per day (at 8 am) for 5 weeks. The blood glucose levels are measured once every 3 days at 3 pm (no fasting) from the second week to the fifth week (Table 24). The blood lipid levels are measured at the end of the fifth week (Table 25).

[8] = system: normal rats; experiment: Blood glucose in normal rats, oral with food; assay type: in vivo, rat; settings: for Blood glucose, Normal rats, Average: average second to fifth week, equal to 20 mg/kg of NSAIAs every day; for Blood glucose, Normal rats, Baseline: equal to 20 mg/kg of NSAIAs
[9] = system: mice (SLAC:NOD-IDDM, type 1 diabetes); experiment: Blood glucose in type 1 diabetes mice, transdermal; assay type: in vivo, mouse; settings: for Blood glucose, Average: average fourth to seventh week, no fasting, equal to 30 mg/kg of NSAIAs once per day for 7 weeks; for Blood glucose, Baseline: equal to 30 mg/kg of NSAIAs
Description: The pro-drugs in this invention lower blood glucose levels in mouse models (SLAC:NOD-IDDM, type 1 diabetes, n=7). 50% acetone solution of diethylaminoethyl acetylsalicylate.acetylsalicylic acid salt (P-1, in acetone); 4-acetamidophenyl salicylyldimethylaminobutyrate.HCl (P-6), diethylaminoethyl 5-(2,4-difluorophenyl) acetylsalicylate.5-(2,4-difluorophenyl) acetylsalicylic acid salt (P-8), diethylaminoethyl salicylsalicylate.AcOH (P-9), diethylaminoethyl salicylate.AcOH (P-10), diethylaminoethyl 5-acetamido-acetylsalicylate (P-58), diethylaminoethyl acetylsalicylsalicylate. acetylsalicylsalicylic acid salt (P-59), diethylaminoethyl acetylsalicylsalicylate. acetylsalicylsalicylsalicylic acid salt (P-60) (equal to of 30 mg/kg of NSAIAs) were administered transdermally to the backs (about 1.5 cm^2) of mice (fur was shaved) once per day (at 8 am) for 7 weeks. The blood glucose levels were measured once every 3 days at 3 pm (no fasting) from the fourth week to the seventh week.

[10] = system: rats (SLAC/GK, type 2 diabetes); experiment: Blood lipid in type 2 diabetes rats, oral with food; assay type: in vivo, rat; settings: for Cholesterol (HDL), Baseline / Cholesterol (total), Baseline / Triglycerides, Baseline: equal to 20 mg/kg of NSAIAs; for Cholesterol (HDL), Average / Cholesterol (total), Average / Triglycerides, Average: end of the fifth week, equal to 20 mg/kg of NSAIAs every day
Description: (§2) 20% acetone solution of diethylaminoethyl acetylsalicylate.acetylsalicylic acid salt (P-1, in acetone); 4-acetamidophenyl salicylyldimethylaminobutyrate.HCl (P-6), diethylaminoethyl 5-(2,4-difluorophenyl) acetylsalicylate.5-(2,4-difluorophenyl) acetylsalicylic acid salt (P-8), diethylaminoethyl salicylsalicylate.AcOH (P-9), diethylaminoethyl salicylate.AcOH (P-10), diethylaminoethyl 5-acetamido-acetylsalicylate (P-58), diethylaminoethyl acetylsalicylsalicylate. acetylsalicylsalicylic acid salt (P-59), diethylaminoethyl acetylsalicylsalicylate. acetylsalicylsalicylsalicylic acid salt (P-60) (equal to of 20 mg/kg of NSAIAs) were mixed with food and were orally administered to the rats (SLAC/GK, type 2 diabetes, n=7) with food every day for 5 weeks. The blood glucose levels were measured once every 3 days at 3 pm (no fasting) from the second week to the fifth week. The blood lipid levels were measured at the end of the fifth week.

[11] = system: normal rats; experiment: Blood glucose in normal rats, transdermal; assay type: in vivo, rat; settings: for Blood glucose, Average: normal rats (second Average line of Table 24), average second to fifth week, equal to 20 mg/kg of NSAIAs once per day; for Blood glucose, Baseline: normal rats (second Baseline line of Table 24), equal to 20 mg/kg of NSAIAs
Description: as §1, with “25). […]” for “25).”

[12] = system: rats (SLAC/GK, type 2 diabetes); experiment: Blood glucose in type 2 diabetes rats, oral with food; assay type: in vivo, rat; settings: for Blood glucose, Diabetic rats, Average: average second to fifth week, no fasting, equal to 20 mg/kg of NSAIAs every day for 5 weeks; for Blood glucose, Diabetic rats, Baseline: equal to 20 mg/kg of NSAIAs
Description: as §2

[13] = system: rats (SLAC/GK, type 2 diabetes); experiment: Blood glucose in type 2 diabetes rats, transdermal; assay type: in vivo, rat; settings: diabetic rats (SLAC/GK); for Blood glucose, Average: average second to fifth week, no fasting, equal to 20 mg/kg of NSAIAs once per day for 5 weeks; for Blood glucose, Baseline: equal to 20 mg/kg of NSAIAs once per day
Description: as §1

[14] = Mus musculus, po, 50 mg/kg orally, read-out: % (rate of writhing inhibition)
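Throughout, for LD50: acute toxicity in rats expressed as LD50, determined for both prodrugs and their parent compounds.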

| SMILES | Cholesterol (HDL), Baseline [7] | Cholesterol (total), Baseline [7] | Triglycerides, Baseline [7] | Cholesterol (HDL), Average [7] | Cholesterol (total), Average [7] | Triglycerides, Average [7] | Blood glucose, Normal rats, Average [8] | Blood glucose, Normal rats, Baseline [8] | Blood glucose, Average [9] | Blood glucose, Baseline [9] | Cholesterol (HDL), Baseline [10] | Cholesterol (total), Baseline [10] | Triglycerides, Baseline [10] | Cholesterol (HDL), Average [10] | Cholesterol (total), Average [10] | Triglycerides, Average [10] | Blood glucose, Average [11] | Blood glucose, Baseline [11] | Blood glucose, Diabetic rats, Average [12] | Blood glucose, Diabetic rats, Baseline [12] | further results |
| --- | --- | --- | --- | --- | --- | --- | --- | --- | --- | --- | --- | --- | --- | --- | --- | --- | --- | --- | --- | --- | --- |
| O=C(O)c1cc(-c2ccc(F)cc2F)ccc1O [Diflunisal, 5-(2,4-difluorophenyl) salicylic acid, reference compound] | – | – | – | – | – | – | – | – | – | – | – | – | – | – | – | – | – | – | – | – | LD50 [1]: 500 mg/kg; In vitro penetration rate (apparent flux), parent compounds [2]: <1 μg/cm^2/h; t, time to peak plasma level after parent compound [3]: 1 to 2 h; Peak plasma concentration after parent compound [3]: 0.2 mg/L; solubility [4]: 50 µg/mL (≈ 200 µM); body temperature, t = 0 min ([5]; 100 mg/kg orally): 37.25 ± 0.06; body temperature, t = 90 min ([5]; 100 mg/kg orally): 36.81 ± 0.05; body temperature, t = 180 min ([5]; 100 mg/kg orally): 36.82 ± 0.08; body temperature, t = 270 min ([5]; 100 mg/kg orally): 36.78 ± 0.07; body temperature, t = 0 min ([5]; 150 mg/kg orally): 37.35 ± 0.09; body temperature, t = 90 min ([5]; 150 mg/kg orally): 36.61 ± 0.07; body temperature, t = 180 min ([5]; 150 mg/kg orally): 36.56 ± 0.06; body temperature, t = 270 min ([5]; 150 mg/kg orally): 36.57 ± 0.05; No. of Writhing ([6]; 50 mg/kg orally): 18.1; No. of Writhing ([6]; 100 mg/kg orally): 13.2; inhibition at 50 mg/kg [6, 14]: 48%; inhibition at 100 mg/kg ([6]; Mus musculus, po, 100 mg/kg orally, read-out: % (rate of writhing inhibition)): 62% |
| CC(C(=O)O)c1cccc(Oc2ccccc2)c1 (stereo not shown) [Fenoprofen, 2-(3-phenoxyphenyl) propionic acid, reference compound] | – | – | – | – | – | – | – | – | – | – | – | – | – | – | – | – | – | – | – | – | LD50 [1]: 800 mg/kg; In vitro penetration rate (apparent flux), parent compounds [2]: <1 μg/cm^2/h; t, time to peak plasma level after parent compound [3]: 1 to 2 h; Peak plasma concentration after parent compound [3]: 1 mg/L; solubility [4]: 100 µg/mL (≈ 413 µM); body temperature, t = 0 min ([5]; 50 mg/kg orally): 37.22 ± 0.07; body temperature, t = 90 min ([5]; 50 mg/kg orally): 36.82 ± 0.06; body temperature, t = 180 min ([5]; 50 mg/kg orally): 36.80 ± 0.05; body temperature, t = 270 min ([5]; 50 mg/kg orally): 36.77 ± 0.08; No. of Writhing ([6]; 50 mg/kg orally): 13.2; inhibition at 50 mg/kg [6, 14]: 62% |
| CC(=O)Nc1ccc(OC(=O)c2ccccc2OC(=O)CCCN(C)C)cc1.Cl [P-6] | 1.3 ± 0.1 mmol/L | 7.3 ± 0.5 mmol/L | 5.3 ± 0.5 mmol/L | 1.3 ± 0.2 mmol/L | 4.7 ± 0.4 mmol/L | 2.3 ± 0.2 mmol/L | 6.4 ± 1 mmol/L | 6.5 ± 1 mmol/L | 9.5 ± 2 mmol/L | 27.7 ± 4 mmol/L | 1.5 ± 0.1 mmol/L | 7.5 ± 0.4 mmol/L | 5.5 ± 0.5 mmol/L | 1.4 ± 0.2 mmol/L | 4.9 ± 0.4 mmol/L | 1.8 ± 0.2 mmol/L | 6.5 ± 1 mmol/L | 6.8 ± 1 mmol/L | 7.5 ± 2 mmol/L | 16.1 ± 4 mmol/L | Blood glucose, Average [13]: 8.5 ± 2 mmol/L; Blood glucose, Baseline [13]: 16.7 ± 4 mmol/L |
| CC(=O)Oc1ccc(-c2ccc(F)cc2F)cc1C(=O)O.CCN(CC)CCOC(=O)c1cc(-c2ccc(F)cc2F)ccc1OC(C)=O [P-8, diethylaminoethyl 5-(2,4-difluorophenyl) acetylsalicylate.5-(2,4-difluorophenyl) acetylsalicylic acid salt] | 1.6 ± 0.2 mmol/L | 7.6 ± 0.6 mmol/L | 5.6 ± 0.6 mmol/L | 1.5 ± 0.2 mmol/L | 5.3 ± 0.3 mmol/L | 1.9 ± 0.2 mmol/L | 6.8 ± 1 mmol/L | 7.0 ± 1 mmol/L | 9.1 ± 1 mmol/L | 29.1 ± 5 mmol/L | 1.4 ± 0.2 mmol/L | 7.8 ± 0.6 mmol/L | 5.6 ± 0.7 mmol/L | 1.3 ± 0.2 mmol/L | 5.7 ± 0.3 mmol/L | 1.8 ± 0.2 mmol/L | 6.8 ± 1 mmol/L | 7.1 ± 1 mmol/L | 7.3 ± 1 mmol/L | 16.1 ± 3 mmol/L | Blood glucose, Average [13]: 8.1 ± 1 mmol/L; Blood glucose, Baseline [13]: 17.1 ± 3 mmol/L |
| CCN(CC)CCOC(=O)c1cc(NC(C)=O)ccc1OC(C)=O [P-58, diethylaminoethyl 5-acetamido-acetylsalicylate] | 1.3 ± 0.1 mmol/L | 7.8 ± 0.5 mmol/L | 5.3 ± 0.5 mmol/L | 1.4 ± 0.2 mmol/L | 5.6 ± 0.4 mmol/L | 2.4 ± 0.2 mmol/L | 7.2 ± 1 mmol/L | 6.9 ± 1 mmol/L | 7.9 ± 1 mmol/L | 27.1 ± 3 mmol/L | 1.8 ± 0.1 mmol/L | 7.9 ± 0.5 mmol/L | 5.5 ± 0.5 mmol/L | 1.6 ± 0.2 mmol/L | 5.8 ± 0.4 mmol/L | 1.8 ± 0.2 mmol/L | 7.1 ± 1 mmol/L | 6.9 ± 1 mmol/L | 8.4 ± 1 mmol/L | 17.0 ± 3 mmol/L | Blood glucose, Average [13]: 8.4 ± 1 mmol/L; Blood glucose, Baseline [13]: 17.1 ± 3 mmol/L |
